Reference: patent US6410551B1, “Tetrazole derivatives” (Byk Gulden Lomberg Chemische Fabrik GmbH, priority 1997, dated 2002)

Tests used:
PDE 4 = experiment: Inhibition of PDE 4 activity (method of Bauer and Schwabe, adapted to microtiter plates); assay type: biochemical; settings: inhibitory concentration as -log IC50 (mol/l)
Experimental: 1. Inhibition of PDE 4 Activity
The activity test was carried out by the method of Bauer and Schwabe, which was adapted to microtiter plates (Naunyn-Schmiedeberg's Arch. Pharmacol. 1980, 311, 193-198). In this connection, the PDE reaction is carried out in the first step. In a second step, the resultant 5′-nucleotide is cleaved to give the uncharged nucleoside by a 5′-nucleotidase of the snake venom from Crotalus atrox. In the third step, the nucleoside is separated from the remaining charged substrate on ion exchange columns. The columns are eluted with 2 ml of 30 mM ammonium formate (pH 6.0) directly into minivials to which 2 ml of scintilation fluid is additionally added for counting.

melting point: 167 to 170 °C
Compound: CCOc1cc2c(cc1OC)C(c1ccc(-c3nnn(CC)n3)cc1)=N[C@H]1CCCC[C@@H]21 (racemic) [Compound 2, (+/−)-cis-9-Ethoxy-8-methoxy-6-[4-(2ethyl-2H-tetrazol-5-yl)phenyl]-1,2,3,4,4a,10b-hexahydrophenanthridine]
Inhibition of the PDE 4 activity, −log IC50 (PDE 4): 8.78
